{"source": "ChEMBL document CHEMBL5465560", "about": "“Selectivity Literature for EUbOPEN Chemogenomic Library” (2024)", "key": {"[1]": {"target": "T1, Serine/threonine-protein kinase ULK2 (Homo sapiens) (UniProt Q8IYT8)", "T1 sequence (whole entry)": "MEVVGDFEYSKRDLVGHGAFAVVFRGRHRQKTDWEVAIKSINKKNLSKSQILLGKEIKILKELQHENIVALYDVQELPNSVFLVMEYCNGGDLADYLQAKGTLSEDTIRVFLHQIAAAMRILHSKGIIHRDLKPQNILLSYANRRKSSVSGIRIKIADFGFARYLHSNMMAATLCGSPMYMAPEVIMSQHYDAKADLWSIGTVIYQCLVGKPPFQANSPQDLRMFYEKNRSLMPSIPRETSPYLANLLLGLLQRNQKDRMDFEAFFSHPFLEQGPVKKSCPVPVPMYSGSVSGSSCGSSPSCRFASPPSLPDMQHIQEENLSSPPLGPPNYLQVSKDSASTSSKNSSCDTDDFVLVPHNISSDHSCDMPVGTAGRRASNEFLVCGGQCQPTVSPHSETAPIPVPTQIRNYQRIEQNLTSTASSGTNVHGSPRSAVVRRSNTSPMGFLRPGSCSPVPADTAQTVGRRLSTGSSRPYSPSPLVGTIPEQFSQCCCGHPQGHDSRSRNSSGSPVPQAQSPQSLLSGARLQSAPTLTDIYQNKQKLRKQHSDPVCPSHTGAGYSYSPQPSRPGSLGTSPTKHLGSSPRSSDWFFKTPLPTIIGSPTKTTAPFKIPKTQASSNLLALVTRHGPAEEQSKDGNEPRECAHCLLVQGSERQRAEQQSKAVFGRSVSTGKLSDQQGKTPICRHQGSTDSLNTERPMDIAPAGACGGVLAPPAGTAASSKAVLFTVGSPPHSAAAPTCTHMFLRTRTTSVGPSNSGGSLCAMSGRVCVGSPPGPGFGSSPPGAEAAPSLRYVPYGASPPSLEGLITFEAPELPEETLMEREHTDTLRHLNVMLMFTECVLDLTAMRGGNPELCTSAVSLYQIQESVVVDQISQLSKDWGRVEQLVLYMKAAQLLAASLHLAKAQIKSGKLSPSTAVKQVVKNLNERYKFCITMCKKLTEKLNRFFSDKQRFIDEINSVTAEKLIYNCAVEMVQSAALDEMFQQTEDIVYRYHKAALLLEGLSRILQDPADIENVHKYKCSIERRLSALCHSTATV", "assay": "Selectivity interaction (KinomeScan (DiscoverX)) EUB0000229b ULK2", "conditions": "at 10 µM"}, "[2]": {"target": "T2, Serine/threonine-protein kinase Nek1 (Homo sapiens) (UniProt Q96PY6)", "T2 sequence (whole entry)": "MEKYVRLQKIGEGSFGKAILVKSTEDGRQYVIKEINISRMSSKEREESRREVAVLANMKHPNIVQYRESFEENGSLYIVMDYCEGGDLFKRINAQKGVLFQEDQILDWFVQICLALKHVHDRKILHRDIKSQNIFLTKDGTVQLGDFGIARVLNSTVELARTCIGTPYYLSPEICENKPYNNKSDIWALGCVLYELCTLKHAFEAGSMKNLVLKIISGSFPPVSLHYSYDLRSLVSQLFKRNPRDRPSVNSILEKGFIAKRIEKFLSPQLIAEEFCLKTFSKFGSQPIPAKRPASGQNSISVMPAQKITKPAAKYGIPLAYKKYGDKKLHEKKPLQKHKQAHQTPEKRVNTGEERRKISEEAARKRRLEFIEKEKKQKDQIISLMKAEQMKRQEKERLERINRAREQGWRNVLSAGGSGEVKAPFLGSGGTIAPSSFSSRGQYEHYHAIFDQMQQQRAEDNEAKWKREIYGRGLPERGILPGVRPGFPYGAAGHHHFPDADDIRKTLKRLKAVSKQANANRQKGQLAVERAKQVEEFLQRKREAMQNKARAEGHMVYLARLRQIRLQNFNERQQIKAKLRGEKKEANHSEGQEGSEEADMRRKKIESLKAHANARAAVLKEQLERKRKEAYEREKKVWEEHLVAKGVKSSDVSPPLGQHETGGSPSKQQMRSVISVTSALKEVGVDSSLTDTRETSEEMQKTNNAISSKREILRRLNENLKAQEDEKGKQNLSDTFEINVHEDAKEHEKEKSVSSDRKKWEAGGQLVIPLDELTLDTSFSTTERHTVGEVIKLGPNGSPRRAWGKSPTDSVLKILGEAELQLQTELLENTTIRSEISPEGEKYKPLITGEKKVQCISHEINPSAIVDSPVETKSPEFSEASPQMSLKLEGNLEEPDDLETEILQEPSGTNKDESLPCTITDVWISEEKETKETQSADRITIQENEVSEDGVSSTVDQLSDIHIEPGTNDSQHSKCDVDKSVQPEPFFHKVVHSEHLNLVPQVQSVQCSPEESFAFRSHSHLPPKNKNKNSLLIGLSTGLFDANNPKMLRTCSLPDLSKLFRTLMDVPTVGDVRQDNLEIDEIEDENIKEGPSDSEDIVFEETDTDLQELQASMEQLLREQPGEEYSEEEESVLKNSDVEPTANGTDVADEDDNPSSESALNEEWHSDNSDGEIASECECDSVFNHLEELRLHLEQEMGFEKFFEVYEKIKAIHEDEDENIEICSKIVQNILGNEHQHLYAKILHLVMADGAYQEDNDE", "assay": "Selectivity interaction (KinomeScan (DiscoverX)) EUB0000092b NEK1", "conditions": "at 10 µM"}, "[3]": {"target": "Mitogen-activated protein kinase 6 (Homo sapiens) (UniProt Q16659)", "sequence (Q16659 whole entry)": "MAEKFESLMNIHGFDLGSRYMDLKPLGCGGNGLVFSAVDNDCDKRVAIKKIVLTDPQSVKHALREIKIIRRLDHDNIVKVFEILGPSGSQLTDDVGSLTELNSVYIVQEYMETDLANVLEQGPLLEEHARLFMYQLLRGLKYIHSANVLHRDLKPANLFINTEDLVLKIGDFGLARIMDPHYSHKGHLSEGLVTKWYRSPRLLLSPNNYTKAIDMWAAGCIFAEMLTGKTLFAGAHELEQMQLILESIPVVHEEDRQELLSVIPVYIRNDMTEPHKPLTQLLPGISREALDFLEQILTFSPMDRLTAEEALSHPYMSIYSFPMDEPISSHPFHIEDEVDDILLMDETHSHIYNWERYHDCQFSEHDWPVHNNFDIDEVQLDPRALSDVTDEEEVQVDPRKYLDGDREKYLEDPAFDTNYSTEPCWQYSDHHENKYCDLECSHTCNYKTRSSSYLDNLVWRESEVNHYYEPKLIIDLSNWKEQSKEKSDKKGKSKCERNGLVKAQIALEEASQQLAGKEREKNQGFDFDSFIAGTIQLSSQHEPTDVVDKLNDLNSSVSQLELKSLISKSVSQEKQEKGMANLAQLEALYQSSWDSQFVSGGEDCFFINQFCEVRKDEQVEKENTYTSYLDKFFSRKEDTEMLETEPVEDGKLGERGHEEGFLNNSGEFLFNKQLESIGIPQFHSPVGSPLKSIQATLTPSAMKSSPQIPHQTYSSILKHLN", "assay": "Selectivity interaction (KinomeScan (DiscoverX)) EUB0000655a MAPK6", "conditions": "at 10 µM"}, "[4]": {"target": "G protein-coupled receptor kinase 4 (Homo sapiens) (UniProt P32298)", "sequence (P32298 whole entry, looked up)": "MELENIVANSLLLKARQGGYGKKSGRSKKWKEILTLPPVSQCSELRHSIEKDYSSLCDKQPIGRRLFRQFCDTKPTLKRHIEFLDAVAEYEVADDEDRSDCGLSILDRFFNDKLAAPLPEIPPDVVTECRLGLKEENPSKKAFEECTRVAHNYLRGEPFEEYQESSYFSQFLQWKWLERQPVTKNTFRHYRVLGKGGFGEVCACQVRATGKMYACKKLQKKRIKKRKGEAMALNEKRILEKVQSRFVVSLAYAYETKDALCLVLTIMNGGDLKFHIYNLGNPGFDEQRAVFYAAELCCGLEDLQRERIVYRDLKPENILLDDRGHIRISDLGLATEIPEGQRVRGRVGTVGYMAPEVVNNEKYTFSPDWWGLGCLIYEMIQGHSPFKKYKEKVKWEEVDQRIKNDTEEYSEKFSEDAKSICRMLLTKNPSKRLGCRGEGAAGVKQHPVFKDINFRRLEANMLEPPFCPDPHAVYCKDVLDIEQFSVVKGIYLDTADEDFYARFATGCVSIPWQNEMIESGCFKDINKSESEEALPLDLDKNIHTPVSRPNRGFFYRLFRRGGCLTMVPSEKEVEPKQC", "assay": "Selectivity interaction (KinomeScan (DiscoverX)) EUB0000695a GRK4", "conditions": "at 100 nM"}, "[5]": {"target": "Myosin-IIIa (Homo sapiens) (UniProt Q8NEV4)", "sequence (Q8NEV4 whole entry)": "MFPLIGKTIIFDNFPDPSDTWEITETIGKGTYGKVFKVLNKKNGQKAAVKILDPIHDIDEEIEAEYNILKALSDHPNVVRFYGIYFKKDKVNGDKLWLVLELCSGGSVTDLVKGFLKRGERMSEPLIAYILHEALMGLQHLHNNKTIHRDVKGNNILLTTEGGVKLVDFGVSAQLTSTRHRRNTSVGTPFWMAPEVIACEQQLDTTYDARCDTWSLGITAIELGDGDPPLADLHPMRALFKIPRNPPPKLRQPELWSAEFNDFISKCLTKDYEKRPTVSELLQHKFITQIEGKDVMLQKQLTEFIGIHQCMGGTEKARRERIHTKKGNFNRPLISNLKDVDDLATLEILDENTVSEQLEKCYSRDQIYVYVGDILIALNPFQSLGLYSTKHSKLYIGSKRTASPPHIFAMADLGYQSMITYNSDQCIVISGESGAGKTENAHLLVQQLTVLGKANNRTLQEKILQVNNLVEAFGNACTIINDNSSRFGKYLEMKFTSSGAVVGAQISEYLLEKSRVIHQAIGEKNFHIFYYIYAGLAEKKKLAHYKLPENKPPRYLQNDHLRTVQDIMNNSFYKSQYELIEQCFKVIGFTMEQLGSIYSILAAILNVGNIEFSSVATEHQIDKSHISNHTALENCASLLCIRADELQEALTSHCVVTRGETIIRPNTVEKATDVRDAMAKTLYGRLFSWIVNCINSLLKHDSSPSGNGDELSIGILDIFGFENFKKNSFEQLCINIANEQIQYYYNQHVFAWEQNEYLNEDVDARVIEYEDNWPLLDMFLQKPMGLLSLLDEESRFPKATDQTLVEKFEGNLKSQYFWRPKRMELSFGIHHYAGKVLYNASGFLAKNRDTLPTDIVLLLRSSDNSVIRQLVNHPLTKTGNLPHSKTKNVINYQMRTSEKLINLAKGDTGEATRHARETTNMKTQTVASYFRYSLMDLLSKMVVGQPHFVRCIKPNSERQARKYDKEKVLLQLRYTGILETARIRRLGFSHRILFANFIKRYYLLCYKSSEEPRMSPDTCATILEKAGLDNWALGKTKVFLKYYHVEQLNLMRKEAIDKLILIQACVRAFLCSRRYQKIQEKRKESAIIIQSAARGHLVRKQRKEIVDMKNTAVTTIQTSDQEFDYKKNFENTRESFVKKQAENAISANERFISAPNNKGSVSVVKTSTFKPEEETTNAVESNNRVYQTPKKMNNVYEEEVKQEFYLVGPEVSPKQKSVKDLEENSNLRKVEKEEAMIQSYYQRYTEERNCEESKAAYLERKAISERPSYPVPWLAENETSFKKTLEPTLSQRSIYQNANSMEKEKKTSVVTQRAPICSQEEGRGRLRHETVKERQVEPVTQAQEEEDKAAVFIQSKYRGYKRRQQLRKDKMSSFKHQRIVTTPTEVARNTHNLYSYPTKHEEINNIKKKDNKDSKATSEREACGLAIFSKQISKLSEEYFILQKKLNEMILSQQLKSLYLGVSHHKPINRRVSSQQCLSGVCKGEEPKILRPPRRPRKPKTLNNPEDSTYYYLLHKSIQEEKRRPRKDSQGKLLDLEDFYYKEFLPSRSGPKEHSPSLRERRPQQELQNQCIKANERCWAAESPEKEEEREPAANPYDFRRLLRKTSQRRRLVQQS", "assay": "Selectivity interaction (KinomeScan (DiscoverX)) EUB0000595a MYO3A", "conditions": "at 10 µM"}, "[6]": {"target": "Casein kinase I isoform alpha (Homo sapiens, UniProt P48729)", "sequence (P48729 2-337 limits assumed)": "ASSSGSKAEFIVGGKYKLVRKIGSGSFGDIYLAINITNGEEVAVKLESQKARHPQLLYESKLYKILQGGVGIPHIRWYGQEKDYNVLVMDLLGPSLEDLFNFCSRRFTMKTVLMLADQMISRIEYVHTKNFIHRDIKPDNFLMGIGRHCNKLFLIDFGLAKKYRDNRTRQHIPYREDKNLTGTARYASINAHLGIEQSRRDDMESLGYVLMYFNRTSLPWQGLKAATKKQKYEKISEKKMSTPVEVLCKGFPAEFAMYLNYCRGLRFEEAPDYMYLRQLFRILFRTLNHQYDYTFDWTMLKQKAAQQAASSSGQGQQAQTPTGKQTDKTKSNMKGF", "assay": "Selectivity interaction (Kinase panel (literature)) EUB0001199aCl CSNK1A1", "conditions": "at 1 µM"}}}
{"smiles": "COc1cc(N(C)c2ccnc3ccc(C(F)(F)F)cc23)cc(OC)c1OC", "values": [{"measurement": "% binding", "setting": "[1]", "value": 86, "unit": "%"}]}
{"smiles": "CCC(=O)N1CCN(c2ccc(-n3c(=O)ccc4cnc5ccc(-c6cnc7ccccc7c6)cc5c43)cc2C(F)(F)F)CC1", "values": [{"measurement": "% of control", "setting": "[2]", "value": 89, "unit": "%"}]}
{"smiles": "CN(C)CCOc1ccc(-c2nc(-c3ccncc3)c(-c3ccc4c(c3)CC/C4=N\\O)[nH]2)cc1", "values": [{"measurement": "% of control", "setting": "[3]", "value": 92, "unit": "%"}]}
{"smiles": "Cc1cc(F)c(C(=O)Nc2cccc(-c3nncn3C(C)C)n2)cc1-n1cnc(C2CC2)c1", "values": [{"measurement": "% of control", "setting": "[4]", "value": 100, "unit": "%"}]}
{"smiles": "COCC(=O)NC/C=C/c1ccc2ncnc(Nc3ccc(Oc4ccc(C)nc4)c(C)c3)c2c1", "note": "[CP-724714]", "values": [{"measurement": "% of control", "setting": "[5]", "value": 75, "unit": "%"}]}
{"smiles": "CN1Cc2nccc(-c3cn(C)nc3-c3ccc(F)cc3)c2C1=O", "values": [{"measurement": "% of inhibition", "setting": "[6]", "value": 51, "unit": "%"}]}
